Experimental data from patent US10941158B2, “Pyrazole ACC inhibitors and uses thereof” (Gilead Apollo, LLC, priority 2015, dated 2021).
≈ marks a conversion by molar mass, not a printed value. Where two headings read alike, the source gives them in different places.

Legend:
[1] = target: human (hACC2) ACC2 (Homo sapiens, UniProt O00763); assay: In vitro Acetyl-CoA Carboxylase (ACC) inhibition assay (ADP-Glo), hACC2; type: biochemical
Procedure: The detailed procedure is as follows. […] 10 μL ADP glo reagent was added. […] 20 μL kinase detection reagent was added.
“NA” stands for “not assayed.”

[2] = tested on: C. krusei ATCC 6258; assay: Anti-Fungal (Candida) Activity Assay, broth microtiter MIC; type: cell-based; conditions: Pichia kudriavzevii, ATCC6258; 3 replicates, MIC recorded at 48 h; read-out: MIC C. krusei ATCC 6258
Summary of the method: (§1)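 Visual 48 h MIC endpoints are reported. Plates followed CLSI M27-A3 in RPMI 1640 plus MOPS.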

[3] = tested on: C. albicans ATCC 90028; assay: as above; type: cell-based; conditions: ATCC90028, 3 replicates, MIC recorded at 48 h, read-out: MIC C. albicans ATCC 90028
Summary of the method: as §1

[4] = tested on: C. parapsilosis ATCC 22019; assay: as above; type: cell-based; conditions: Lodderomyces parapsilosis, ATCC22019; 3 replicates, MIC recorded at 48 h; read-out: MIC C. parapsilosis ATCC 22019
Summary of the method: as §1

[5] = target: fungal (fACC2) ACC2 (UniProt Q00955); conditions: read-out: fACC2 IC50; fungal ACC2, ADP-Glo
[6] = tested on: Fusarium moniliforme (Fm); assay: Growth inhibition assay of fungal pathogens; type: cell-based; conditions: Fusarium verticillioides, 48 h, read-out: Concentration at 90% Inhibition Fm
Summary of the method: (§2)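 OD600 (blank-subtracted) plus visual scoring at 48 h, vs 2% DMSO ctrl → % inhibition. Final cpd 50/10/2 or 2/0.4/0.08 ppm. Fm/Bc/Dm spores in 17% V8 broth; Rs as 1.5 mm plugs in ¼ PDB.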

[7] = tested on: Botrtyis cinerea (Bc); assay: Growth inhibition assay of fungal pathogens; type: cell-based; conditions: 48 h, Table 4b, read-out: Concentration at 90% Inhibition Bc
Summary of the method: as §2

[8] = tested on: Rhizoctonia solani (Rs); assay: Growth inhibition assay of fungal pathogens; type: cell-based; conditions: 48 h, Table 4b, read-out: Concentration at 90% Inhibition Rs
Summary of the method: as §2

[9] = tested on: Phytophthora capsici (Pc); assay: Growth inhibition assay of fungal pathogens; type: cell-based; conditions: Phytophthora capsici, Table 4b, read-out: Concentration at 90% Inhibition Pc
Summary of the method: (§3)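 Compounds in DMSO tested at final 50, 10, 2 ppm or 2, 0.4, 0.08 ppm. Spores in 17% V8 medium, or 1.5 mm mycelial plugs in ¼ PDB for R. solani, incubated with compound. OD600 and visual ratings at 48 h versus 2% DMSO control gave percent growth inhibition.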

[10] = tested on: Diplodia maydis (Dm); assay: Growth inhibition assay of fungal pathogens; type: cell-based; conditions: Stenocarpella maydis, 48 h, Table 4b, read-out: Concentration at 90% Inhibition Dm
Summary of the method: as §2

[11] = tested on: Septoria tritici (St); assay: Growth inhibition assay of fungal pathogens; type: cell-based; conditions: Zymoseptoria tritici, Table 4b, read-out: Concentration at 90% Inhibition St
Summary of the method: as §3

[12] = tested on: Collectotrichum graminicola (Cg); assay: Growth inhibition assay of fungal pathogens; type: cell-based; conditions: 48 h, Table 4b, read-out: Concentration at 90% Inhibition Cg
Summary of the method: as §3

[13] = tested on: Fusarium virguliforme (Fv); assay: Growth inhibition assay of fungal pathogens; type: cell-based; conditions: 48 h
Summary of the method: as §3

[14] = Table 4b, 48 hours, read-out: Concentration at 90% Inhibition Fv

Sequence of fungal (fACC2) ACC2 (Q00955 whole entry): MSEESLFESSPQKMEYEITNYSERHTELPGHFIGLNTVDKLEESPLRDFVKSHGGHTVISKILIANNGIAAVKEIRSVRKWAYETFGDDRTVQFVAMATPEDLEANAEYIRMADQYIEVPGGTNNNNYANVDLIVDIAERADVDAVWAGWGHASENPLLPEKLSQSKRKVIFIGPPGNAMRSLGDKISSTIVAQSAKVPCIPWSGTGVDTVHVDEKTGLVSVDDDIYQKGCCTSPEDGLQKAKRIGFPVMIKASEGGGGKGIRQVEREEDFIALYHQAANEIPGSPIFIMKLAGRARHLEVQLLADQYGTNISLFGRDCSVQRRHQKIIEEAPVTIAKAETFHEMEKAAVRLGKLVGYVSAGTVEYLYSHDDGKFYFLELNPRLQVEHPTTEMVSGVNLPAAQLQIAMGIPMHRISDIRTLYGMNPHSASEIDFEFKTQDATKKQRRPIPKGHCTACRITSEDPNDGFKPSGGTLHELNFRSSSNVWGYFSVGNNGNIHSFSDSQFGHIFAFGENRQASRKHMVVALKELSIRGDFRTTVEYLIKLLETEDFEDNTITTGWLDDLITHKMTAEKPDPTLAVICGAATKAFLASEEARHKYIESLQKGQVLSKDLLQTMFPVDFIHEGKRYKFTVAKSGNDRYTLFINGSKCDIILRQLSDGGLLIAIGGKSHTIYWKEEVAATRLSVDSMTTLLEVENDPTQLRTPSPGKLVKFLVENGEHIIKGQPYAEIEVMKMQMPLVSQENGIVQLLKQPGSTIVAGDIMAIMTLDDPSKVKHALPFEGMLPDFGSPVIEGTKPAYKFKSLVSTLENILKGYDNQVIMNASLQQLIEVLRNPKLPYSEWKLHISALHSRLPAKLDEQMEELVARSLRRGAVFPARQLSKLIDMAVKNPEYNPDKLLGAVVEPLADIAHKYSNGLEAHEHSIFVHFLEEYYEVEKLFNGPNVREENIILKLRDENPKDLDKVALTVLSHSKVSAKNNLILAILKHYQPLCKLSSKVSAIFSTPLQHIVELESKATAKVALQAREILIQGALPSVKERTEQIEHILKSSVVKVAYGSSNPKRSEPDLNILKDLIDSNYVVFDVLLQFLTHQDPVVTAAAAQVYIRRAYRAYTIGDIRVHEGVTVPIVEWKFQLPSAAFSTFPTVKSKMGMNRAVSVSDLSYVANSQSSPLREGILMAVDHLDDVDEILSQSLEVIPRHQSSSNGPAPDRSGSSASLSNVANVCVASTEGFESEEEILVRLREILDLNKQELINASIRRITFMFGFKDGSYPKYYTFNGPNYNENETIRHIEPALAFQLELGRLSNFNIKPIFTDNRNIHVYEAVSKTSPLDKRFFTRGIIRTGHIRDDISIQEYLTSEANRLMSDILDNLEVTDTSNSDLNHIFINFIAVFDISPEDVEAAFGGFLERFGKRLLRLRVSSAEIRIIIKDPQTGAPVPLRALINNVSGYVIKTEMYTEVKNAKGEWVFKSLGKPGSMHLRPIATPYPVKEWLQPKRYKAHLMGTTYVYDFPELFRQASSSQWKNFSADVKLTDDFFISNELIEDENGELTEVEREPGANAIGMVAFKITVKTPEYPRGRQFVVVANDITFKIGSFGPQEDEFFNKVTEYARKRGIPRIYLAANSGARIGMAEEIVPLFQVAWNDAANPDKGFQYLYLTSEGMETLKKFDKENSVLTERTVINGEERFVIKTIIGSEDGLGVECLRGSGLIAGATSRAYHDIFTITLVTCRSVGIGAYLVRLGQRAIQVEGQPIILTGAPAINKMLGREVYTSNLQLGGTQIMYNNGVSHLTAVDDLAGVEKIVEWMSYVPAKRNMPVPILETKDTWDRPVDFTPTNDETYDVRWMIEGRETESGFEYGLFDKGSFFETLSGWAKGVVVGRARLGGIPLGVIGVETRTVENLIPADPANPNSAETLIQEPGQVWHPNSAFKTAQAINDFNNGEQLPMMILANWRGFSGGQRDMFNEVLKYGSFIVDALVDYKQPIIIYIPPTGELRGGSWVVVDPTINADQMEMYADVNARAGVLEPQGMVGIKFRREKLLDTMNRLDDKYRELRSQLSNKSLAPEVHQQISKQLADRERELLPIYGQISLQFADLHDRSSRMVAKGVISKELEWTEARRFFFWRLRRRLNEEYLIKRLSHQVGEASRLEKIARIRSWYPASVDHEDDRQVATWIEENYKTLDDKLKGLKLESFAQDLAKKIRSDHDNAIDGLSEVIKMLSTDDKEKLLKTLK
Sequence of human (hACC2) ACC2 (O00763 whole entry): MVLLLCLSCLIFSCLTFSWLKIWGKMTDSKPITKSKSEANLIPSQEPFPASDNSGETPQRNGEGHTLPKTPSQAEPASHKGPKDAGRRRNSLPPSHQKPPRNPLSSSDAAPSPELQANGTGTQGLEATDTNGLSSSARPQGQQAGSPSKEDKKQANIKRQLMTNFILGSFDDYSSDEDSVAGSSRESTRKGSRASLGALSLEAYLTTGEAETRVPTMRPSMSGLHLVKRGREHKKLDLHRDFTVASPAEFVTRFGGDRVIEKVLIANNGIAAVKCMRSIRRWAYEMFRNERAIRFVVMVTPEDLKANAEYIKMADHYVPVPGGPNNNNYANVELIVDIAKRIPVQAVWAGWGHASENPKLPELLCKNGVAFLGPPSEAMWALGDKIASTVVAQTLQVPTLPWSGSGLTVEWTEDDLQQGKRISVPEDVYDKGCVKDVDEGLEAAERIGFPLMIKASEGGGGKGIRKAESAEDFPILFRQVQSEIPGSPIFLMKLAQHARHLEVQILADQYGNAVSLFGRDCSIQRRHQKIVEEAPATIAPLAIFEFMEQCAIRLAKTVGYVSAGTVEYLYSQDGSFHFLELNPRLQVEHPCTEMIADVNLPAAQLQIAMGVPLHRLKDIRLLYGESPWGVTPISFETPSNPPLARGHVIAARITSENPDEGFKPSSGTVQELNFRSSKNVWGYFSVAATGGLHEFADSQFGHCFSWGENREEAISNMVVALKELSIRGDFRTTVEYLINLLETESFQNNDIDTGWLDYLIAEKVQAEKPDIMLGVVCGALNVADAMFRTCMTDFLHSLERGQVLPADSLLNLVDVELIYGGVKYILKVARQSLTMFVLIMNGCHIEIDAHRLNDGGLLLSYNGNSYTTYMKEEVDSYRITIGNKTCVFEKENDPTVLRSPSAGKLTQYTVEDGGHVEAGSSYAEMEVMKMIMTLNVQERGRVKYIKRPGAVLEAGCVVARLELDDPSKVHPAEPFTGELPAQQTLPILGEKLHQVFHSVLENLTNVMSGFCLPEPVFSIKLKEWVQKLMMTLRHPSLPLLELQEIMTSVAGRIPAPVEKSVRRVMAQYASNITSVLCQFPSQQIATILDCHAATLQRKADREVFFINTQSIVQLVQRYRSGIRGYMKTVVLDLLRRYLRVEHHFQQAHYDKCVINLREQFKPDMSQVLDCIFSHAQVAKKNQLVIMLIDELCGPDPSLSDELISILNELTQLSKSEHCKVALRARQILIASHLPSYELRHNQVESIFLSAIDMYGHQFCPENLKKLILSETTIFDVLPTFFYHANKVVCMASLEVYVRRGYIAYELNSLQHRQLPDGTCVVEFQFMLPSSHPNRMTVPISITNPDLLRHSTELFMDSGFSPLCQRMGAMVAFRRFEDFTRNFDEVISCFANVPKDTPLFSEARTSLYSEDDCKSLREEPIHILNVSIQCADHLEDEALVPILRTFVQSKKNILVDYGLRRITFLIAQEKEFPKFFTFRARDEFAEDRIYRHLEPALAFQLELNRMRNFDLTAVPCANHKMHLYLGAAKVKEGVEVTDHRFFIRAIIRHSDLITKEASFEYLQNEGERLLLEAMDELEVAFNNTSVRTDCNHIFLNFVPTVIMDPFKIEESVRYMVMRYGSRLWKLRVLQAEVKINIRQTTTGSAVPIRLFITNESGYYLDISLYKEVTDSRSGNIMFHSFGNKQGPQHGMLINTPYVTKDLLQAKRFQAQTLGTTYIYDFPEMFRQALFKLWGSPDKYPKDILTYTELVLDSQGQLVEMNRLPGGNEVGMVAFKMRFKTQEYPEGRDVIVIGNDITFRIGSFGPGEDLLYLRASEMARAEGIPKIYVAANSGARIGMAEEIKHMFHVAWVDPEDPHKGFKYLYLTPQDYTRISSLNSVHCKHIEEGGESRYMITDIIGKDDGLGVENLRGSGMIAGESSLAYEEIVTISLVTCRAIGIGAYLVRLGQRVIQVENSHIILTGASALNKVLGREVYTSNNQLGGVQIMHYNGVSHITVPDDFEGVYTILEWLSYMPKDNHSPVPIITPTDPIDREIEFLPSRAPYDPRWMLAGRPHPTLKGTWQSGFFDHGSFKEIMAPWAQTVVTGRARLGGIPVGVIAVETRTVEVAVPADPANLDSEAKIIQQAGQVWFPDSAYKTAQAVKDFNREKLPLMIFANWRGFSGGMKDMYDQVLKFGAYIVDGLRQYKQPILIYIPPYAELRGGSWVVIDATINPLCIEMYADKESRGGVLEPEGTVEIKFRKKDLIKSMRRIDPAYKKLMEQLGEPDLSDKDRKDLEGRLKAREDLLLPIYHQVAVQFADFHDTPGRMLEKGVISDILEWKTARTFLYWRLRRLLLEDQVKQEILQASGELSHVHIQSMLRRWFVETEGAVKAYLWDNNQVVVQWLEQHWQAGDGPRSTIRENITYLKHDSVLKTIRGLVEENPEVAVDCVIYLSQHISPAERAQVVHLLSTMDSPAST

Row | SMILES | IC50 [1] [nM] | MIC [2] [µg/mL] | MIC [3] [µg/mL] | MIC [4] [µg/mL] | IC50 [5] [nM] | also measured
1 | COCCO[C@@H](Cn1c(=O)n(C(C)C(=O)N2CCCC2)c(=O)c2c(C)c(-n3cccn3)sc21)c1cc(F)ccc1OC (mixture of isomers) [Compound I-54, 1-((R)-2-(5-fluoro-2-methoxyphenyl)-2-(2-methoxyethoxy)ethyl)-5-methyl-3-(1-oxo-1-(pyrrolidin-1-yl)propan-2-yl)-6-(1H-pyrazol-1-yl)thieno[2,3-d]pyrimidine-2,4(1H,3H)-dione] | 10 to 40 | > 4.1 | > 4.1 | > 4.1 | 0.6 to 3 | –
2 | Cc1c(-n2cccn2)sc2c1c(=O)n(C(C)(C)C(=O)NC(C)C)c(=O)n2C[C@H](OC1CCOCC1)c1cc(F)ccc1OCCO [Compound I-48] | 3 to 10 | > 4.1 | > 4.1 | > 4.1 | 0.6 to 3 | –
3 | COCCOc1ccc(F)cc1[C@H](Cn1c(=O)n(C(C)(C)C(=O)NC(C)C)c(=O)c2c(C)c(-n3cccn3)sc21)OC1CCOCC1 [Compound I-49] | 3 to 10 | 1.1 to 2 (≈ 1.64 to 2.98 µM) | > 4.1 | > 4.1 | 0.6 to 3 | –
4 | Cc1c(-n2cccn2)sc2c1c(=O)n(C(C)(C)C(=O)NC(C)C)c(=O)n2C[C@H](OC1CCOCC1)c1cc(F)ccc1OCC1COC1 [Compound I-50] | 3 to 10 | > 4.1 | > 4.1 | > 4.1 | 0.6 to 3 | –
5 | Cc1c(-n2cccn2)sc2c1c(=O)n(C(C)(C)C(=O)N1CCCC1)c(=O)n2C[C@H](OC1CCOCC1)c1cc(F)ccc1OCCO [Compound I-51] | 3 to 10 | 0.25 to 1 (≈ 0.373 to 1.49 µM) | 1.1 to 2 (≈ 1.64 to 2.99 µM) | 2.1 to 4 (≈ 3.14 to 5.97 µM) | 0.6 to 3 | –
6 | COCCOc1ccc(F)cc1[C@H](Cn1c(=O)n(C(C)(C)C(=O)N2CCCC2)c(=O)c2c(C)c(-n3cccn3)sc21)OC1CCOCC1 [Compound I-52] | 3 to 10 | 1.1 to 2 (≈ 1.61 to 2.92 µM) | 2.1 to 4 (≈ 3.07 to 5.85 µM) | 1.1 to 2 (≈ 1.61 to 2.92 µM) | 0.6 to 3 | –
7 | Cc1c(-n2cccn2)sc2c1c(=O)n(C(C)(C)C(=O)N1CCCC1)c(=O)n2C[C@H](OC1CCOCC1)c1cc(F)ccc1OCC1COC1 [Compound I-53] | 3 to 10 | 1.1 to 2 (≈ 1.58 to 2.87 µM) | > 4.1 | 2.1 to 4 (≈ 3.02 to 5.75 µM) | 0.6 to 3 | –
8 | COCCO[C@@H](Cn1c(=O)n(C(C)C(=O)NC(C)C)c(=O)c2c(C)c(-n3cccn3)sc21)c1cc(F)ccc1OC (some centres unmarked) [Compound I-55] | 3 to 10 | 2.1 to 4 (≈ 3.57 to 6.81 µM) | 2.1 to 4 (≈ 3.57 to 6.81 µM) | 2.1 to 4 (≈ 3.57 to 6.81 µM) | 0.6 to 3 | –
9 | COCCO[C@@H](Cn1c(=O)n(C(C)C(N)=O)c(=O)c2c(C)c(-n3cccn3)sc21)c1cc(F)ccc1OC (some centres unmarked) [Compound I-56] | > 40 | > 4.1 | > 4.1 | > 4.1 | 10 to 40 | –
10 | COCCO[C@@H](Cn1c(=O)n(C(C)C(=O)O)c(=O)c2c(C)c(-n3cccn3)sc21)c1cc(F)ccc1OC (some centres unmarked) [Compound I-57] | 10 to 40 | > 4.1 | > 4.1 | > 4.1 | 10 to 40 | –
11 | COc1ccc(F)cc1[C@H](Cn1c(=O)n(C(C)C(=O)N2CCCC2)c(=O)c2c(C)c(-n3cccn3)sc21)OCCO (some centres unmarked) [Compound I-58] | 3 to 10 | 2.1 to 4 (≈ 3.59 to 6.83 µM) | > 4.1 | > 4.1 | 0.6 to 3 | –
12 | COc1ccc(F)cc1[C@H](Cn1c(=O)n(C(C)C(=O)NC(C)C)c(=O)c2c(C)c(-n3cccn3)sc21)OCCO (some centres unmarked) [Compound I-59] | 3 to 10 | > 4.1 | > 4.1 | > 4.1 | 0.6 to 3 | –
13 | COc1ccc(F)cc1[C@H](Cn1c(=O)n(C(C)C(=O)O)c(=O)c2c(C)c(-n3cccn3)sc21)OCCO (some centres unmarked) [Compound I-60] | 3 to 10 | > 4.1 | > 4.1 | > 4.1 | 0.6 to 3 | –
14 | COc1ccc(F)cc1[C@H](Cn1c(=O)n(C(C)C(N)=O)c(=O)c2c(C)c(-n3cccn3)sc21)OCCO (some centres unmarked) [Compound I-61] | 10 to 40 | > 4.1 | > 4.1 | > 4.1 | 0.6 to 3 | –
15 | COc1ccc(F)cc1[C@H](Cn1c(=O)n(C(C)C(=O)O)c(=O)c2c(C)c(-n3cccn3)sc21)OCC(C)(C)O (some centres unmarked) [Compound I-62] | 3 to 10 | > 4.1 | > 4.1 | > 4.1 | 0.6 to 3 | –
16 | COCCOc1ccc(F)cc1[C@H](Cn1c(=O)n(C(C)(C)C(N)=O)c(=O)c2c(C)c(-n3cccn3)sc21)OC(C)C [Compound I-63] | 3 to 10 | > 4.1 | > 4.1 | > 4.1 | 0.6 to 3 | –
17 | COCCOc1ccc(F)cc1[C@H](Cn1c(=O)n(C(C)(C)C(=O)O)c(=O)c2c(C)c(-n3cccn3)sc21)OC(C)C [Compound I-64] | 3 to 10 | > 4.1 | > 4.1 | > 4.1 | 0.6 to 3 | –
18 | COc1ccc(F)cc1[C@H](Cn1c(=O)n(C(C)C(=O)O)c(=O)c2c(C)c(-n3cccn3)sc21)OCC(C)=O (some centres unmarked) [Compound I-65] | 10 to 40 | > 4.1 | > 4.1 | > 4.1 | 3 to 10 | –
19 | COc1ccc(F)cc1[C@H](Cn1c(=O)n(C(C)C(=O)N2CCCC2)c(=O)c2c(C)c(-n3cccn3)sc21)OCC(C)(C)O (some centres unmarked) [Compound I-66] | 10 to 40 | > 4.1 | > 4.1 | > 4.1 | 0.6 to 3 | –
20 | COc1ccc(F)cc1[C@H](Cn1c(=O)n(C(C)C(=O)NC(C)C)c(=O)c2c(C)c(-n3cccn3)sc21)OCC(C)(C)O (some centres unmarked) [Compound I-67] | 10 to 40 | > 4.1 | > 4.1 | > 4.1 | 0.6 to 3 | –
21 | COc1ccc(F)cc1[C@H](Cn1c(=O)n(C(C)C(N)=O)c(=O)c2c(C)c(-n3cccn3)sc21)OCC(C)(C)O (some centres unmarked) [Compound I-68] | 10 to 40 | > 4.1 | > 4.1 | > 4.1 | 0.6 to 3 | –
22 | COCCCO[C@@H](Cn1c(=O)n(C(C)C(=O)NC(C)C)c(=O)c2c(C)c(-n3cccn3)sc21)c1cc(F)ccc1OC (some centres unmarked) [Compound I-69] | 10 to 40 | > 4.1 | > 4.1 | > 4.1 | 0.6 to 3 | –
23 | COCCO[C@@H](Cn1c(=O)n([C@@H](C)C(=O)N2CCCC2)c(=O)c2c(C)c(-n3cccn3)sc21)c1cc(F)ccc1OC [Compound I-75, 1-((R)-2-(5-fluoro-2-methoxyphenyl)-2-(2-methoxyethoxy)ethyl)-5-methyl-3-((S)-1-oxo-1-(pyrrolidin-1-yl)propan-2-yl)-6-(1H-pyrazol-1-yl)thieno[2,3-d]pyrimidine-2,4(1H,3H)-dione] | 3 to 10 | – | – | – | 0.6 to 3 | IC90 ([6]; Table 4b, 48 hours): 0.08 µg/mL (≈ 0.133 µM); IC90 [7]: 2 µg/mL (≈ 3.34 µM); IC90 [8]: 0.08 µg/mL (≈ 0.133 µM); IC90 ([9]; 48 hours): > 50 µg/mL; IC90 [10]: 2 µg/mL (≈ 3.34 µM); IC90 ([11]; 48 hours): > 50 µg/mL; IC90 [12]: 2 µg/mL (≈ 3.34 µM); IC90 [13, 14]: 0.4 µg/mL (≈ 0.667 µM)
24 | COc1ccc(F)cc1[C@H](Cn1c(=O)n(C(C)(C)C(=O)NC(C)C)c(=O)c2c(C)c(-n3cccn3)sc21)OCCC#N [Compound I-78, (R)-2-(1-(2-(2-cyanoethoxy)-2-(5-fluoro-2-methoxyphenyl)ethyl)-5-methyl-2,4-dioxo-6-(1H-pyrazol-1-yl)-1,4-dihydrothieno[2,3-d]pyrimidin-3(2H)-yl)-N-isopropyl-2-methylpropanamide] | 10 to 40 | – | – | – | 0.6 to 3 | IC90 [6]: 10 µg/mL (≈ 16.8 µM); IC90 [7]: 10 µg/mL (≈ 16.8 µM); IC90 [8]: 10 µg/mL (≈ 16.8 µM); IC90 ([9]; 48 h): > 50 µg/mL; IC90 [10]: > 50 µg/mL; IC90 ([11]; 48 h): > 50 µg/mL; IC90 [12]: > 50 µg/mL; IC90 ([13]; read-out: Concentration at 90% Inhibition Fv, Table 4b, 48 hours): > 50 µg/mL
25 | COc1ccccc1[C@H](Cn1c(=O)n(C(C)(C)C(=O)O)c(=O)c2c(C)c(-n3cccn3)sc21)OCCC#N [Compound I-79] | 3 to 10 | – | – | – | 0.6 to 3 | IC90 ([6]; Table 4b, 48 hours): 0.08 µg/mL (≈ 0.149 µM); IC90 [7]: 0.4 µg/mL (≈ 0.744 µM); IC90 [8]: 0.08 µg/mL (≈ 0.149 µM); IC90 ([9]; 48 hours): > 50 µg/mL; IC90 [10]: 0.4 µg/mL (≈ 0.744 µM); IC90 ([11]; 48 hours): 10 µg/mL (≈ 18.6 µM); IC90 [12]: 0.4 µg/mL (≈ 0.744 µM); IC90 [13, 14]: 0.4 µg/mL (≈ 0.744 µM)
